“And” between values parts separate entries of the source, which are not always exact repeats. Identical values can stand only once. Toxic doses and inconclusive results are not listed. The calls were made as follows: active = survival T/C of 150% or more; inactive = T/C below 125% in these data.
Test system: P388 leukemia ip, CD2F1 mice, survival T/C
Experiment: NCI In Vivo Anticancer Drug Screen. Data for tumor model P388 Leukemia (intraperitoneal) in CD2F1 (CDF1) mice
Details: endpoint: median survival time, higher = longer survival
Procedure, shortened: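 Mice carrying the transplanted tumor received test compound or vehicle. Survival was recorded in each group, and the value is the treated-group measurement divided by that of the vehicle-treated control group.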

[1] = dose: 60.0 mg/kg/injection, schedule: Q01DX005 (ip), vehicle: saline
[2] = dose: 120.0 mg/kg/injection, schedule: Q01DX005 (ip), vehicle: saline
[3] = dose: 50.0 mg/kg/injection, schedule: Q01DX009 (ip), vehicle: Klucel (hydroxypropylcellulose) (HPC)
[4] = dose: 100.0 mg/kg/injection, schedule: Q01DX009 (ip), vehicle: Klucel (hydroxypropylcellulose) (HPC)
[5] = dose: 200.0 mg/kg/injection, schedule: Q01DX009 (ip), vehicle: Klucel (hydroxypropylcellulose) (HPC)
[6] = dose: 50.0 mg/kg/injection, schedule: Q01DX005 (ip), vehicle: saline with Tween-80
[7] = dose: 100.0 mg/kg/injection, schedule: Q01DX005 (ip), vehicle: saline with Tween-80
[8] = dose: 100.0 mg/kg/injection, schedule: Q01DX009 (ip), vehicle: saline with Tween-80
[9] = dose: 50.0 mg/kg/injection, schedule: Q01DX009 (ip), vehicle: saline with Tween-80
[10] = dose: 50.0 mg/kg/injection, schedule: Q01DX005 (ip), vehicle: Klucel (hydroxypropylcellulose) (HPC)
[11] = dose: 100.0 mg/kg/injection, schedule: Q01DX005 (ip), vehicle: Klucel (hydroxypropylcellulose) (HPC)
[12] = dose: 200.0 mg/kg/injection, schedule: Q01DX005 (ip), vehicle: Klucel (hydroxypropylcellulose) (HPC)
[13] = dose: 60.0 mg/kg/injection, schedule: Q01DX005 (ip), vehicle: Klucel (hydroxypropylcellulose) (HPC)
[14] = dose: 240.0 mg/kg/injection, schedule: Q01DX005 (ip), vehicle: Klucel (hydroxypropylcellulose) (HPC)

Measured: T/C

C=CC1C(OC2OC(CO)C(O)C(O)C2O)OC=C(C(=O)OC)C1CC1CC(=O)CC(CC(=O)CCc2ccc(O)cc2)O1 (centres undefined)
inactive: dose: 18.75 mg/kg/injection, schedule: Q01DX005 (ip), vehicle: water 98 % of control | dose: 37.5 mg/kg/injection, schedule: Q01DX005 (ip), vehicle: water 101 % of control | dose: 75.0 mg/kg/injection, schedule: Q01DX005 (ip), vehicle: water 101 % of control | dose: 150.0 mg/kg/injection, schedule: Q01DX005 (ip), vehicle: water 101 % of control

O=C(c1c(F)c(F)c(F)c(F)c1F)n1ccnc1
inactive: [1] 104 % of control | [2] 101 % of control | dose: 240.0 mg/kg/injection, schedule: Q01DX005 (ip), vehicle: saline 87 % of control

CCS(CC)=NC(=O)C(Cl)Cl
inactive: dose: 50.0 mg/kg/injection, schedule: Q01DX001 (ip), vehicle: Klucel (hydroxypropylcellulose) (HPC) 100 % of control and 104 % of control and 97 % of control | dose: 100.0 mg/kg/injection, schedule: Q01DX001 (ip), vehicle: Klucel (hydroxypropylcellulose) (HPC) 99 % of control and 100 % of control and 94 % of control | dose: 200.0 mg/kg/injection, schedule: Q01DX001 (ip), vehicle: Klucel (hydroxypropylcellulose) (HPC) 99 % of control and 100 % of control and 123 % of control | dose: 400.0 mg/kg/injection, schedule: Q01DX001 (ip), vehicle: Klucel (hydroxypropylcellulose) (HPC) 111 % of control and 95 % of control

CCOC(=O)c1cnc(SCc2ccccc2)[nH]c1=O
inactive: dose: 100.0 mg/kg/injection, schedule: Q04DX003 (ip), vehicle: saline with Tween-80 100 % of control | dose: 200.0 mg/kg/injection, schedule: Q04DX003 (ip), vehicle: saline with Tween-80 90 % of control | dose: 400.0 mg/kg/injection, schedule: Q04DX003 (ip), vehicle: saline with Tween-80 100 % of control

COC1C(Br)C(C)(OC)c2ccccc2N1C#N (centres undefined)
inactive: [3] 101 % of control | [4] 100 % of control | [5] 100 % of control

C=C1C(=O)OC2C(OC(C)=O)C1C(OC(=O)C(C)CC)[C@]1(C)C(=O)C=C[C@H]1[C@@H]2C (some centres undefined)
inactive: dose: 0.78 mg/kg/injection, schedule: Q01DX005 (ip), vehicle: Klucel (hydroxypropylcellulose) (HPC) 97 % of control | dose: 1.56 mg/kg/injection, schedule: Q01DX005 (ip), vehicle: Klucel (hydroxypropylcellulose) (HPC) 101 % of control and 113 % of control | dose: 3.12 mg/kg/injection, schedule: Q01DX005 (ip), vehicle: Klucel (hydroxypropylcellulose) (HPC) 111 % of control | dose: 6.25 mg/kg/injection, schedule: Q01DX005 (ip), vehicle: Klucel (hydroxypropylcellulose) (HPC) 116 % of control and 122 % of control | dose: 12.5 mg/kg/injection, schedule: Q01DX005 (ip), vehicle: Klucel (hydroxypropylcellulose) (HPC) 99 % of control and 102 % of control

C[C@]12C=CC(=O)C=C1CC[C@@H]1[C@@H]2CC[C@@]2(C)[C@H]1CC[C@]2(C)O
inactive: [6] 97 % of control | [7] 95 % of control | [4] 110 % of control | [5] 90 % of control

CCCn1c(C)nc2cc(C(F)(F)F)cc([N+](=O)[O-])c21
inactive: dose: 15.0 mg/kg/injection, schedule: Q01DX005 (ip), vehicle: saline with Tween-80 94 % of control | dose: 30.0 mg/kg/injection, schedule: Q01DX005 (ip), vehicle: saline with Tween-80 99 % of control | dose: 60.0 mg/kg/injection, schedule: Q01DX005 (ip), vehicle: saline with Tween-80 101 % of control and 97 % of control | dose: 120.0 mg/kg/injection, schedule: Q01DX005 (ip), vehicle: saline with Tween-80 98 % of control | dose: 240.0 mg/kg/injection, schedule: Q01DX005 (ip), vehicle: saline with Tween-80 103 % of control

CC1(C)C/C(=C\c2cc(O)ccc2[N+](=O)[O-])C(=O)c2ccccc21
inactive: [8] 86 % of control | dose: 200.0 mg/kg/injection, schedule: Q01DX009 (ip), vehicle: saline with Tween-80 95 % of control | dose: 400.0 mg/kg/injection, schedule: Q01DX009 (ip), vehicle: saline with Tween-80 90 % of control

c1cnc2c(c1)C1OC(S2)c2cccnc2S1
inactive: [9] 102 % of control | [8] 97 % of control

C=CCNC(=S)N/N=C(C)/C=C/c1ccc(OC)cc1
inactive: [10] 100 % of control | [11] 96 % of control | [12] 88 % of control

CC1(C)CC(=O)C([Se]C2=C(O)CC(C)(C)CC2=O)=C(O)C1
inactive: dose: 6.25 mg/kg/injection, schedule: Q01DX009 (ip), vehicle: saline 101 % of control | dose: 12.5 mg/kg/injection, schedule: Q01DX009 (ip), vehicle: saline 104 % of control | dose: 25.0 mg/kg/injection, schedule: Q01DX009 (ip), vehicle: saline 111 % of control

O=C(Nc1cccc(C(F)(F)F)c1)C(Cl)=C(Cl)Cl
inactive: [13] 103 % of control | dose: 120.0 mg/kg/injection, schedule: Q01DX005 (ip), vehicle: Klucel (hydroxypropylcellulose) (HPC) 111 % of control | [14] 95 % of control

OC1CCN(c2c3ccccc3nc3ccccc23)CC1
inactive: dose: 12.5 mg/kg/injection, schedule: Q04DX002 (ip), vehicle: saline 105 % of control | dose: 25.0 mg/kg/injection, schedule: Q04DX002 (ip), vehicle: saline 113 % of control

COc1ccc2c(c1OC)C(=O)OC2c1cc(Br)c(O)c(C2OC(=O)c3c2ccc(OC)c3OC)c1 (centres undefined)
inactive: [9] 90 % of control | [8] 86 % of control | dose: 100.0 mg/kg/injection, schedule: Q04DX003 (ip), vehicle: saline 87 % of control | dose: 400.0 mg/kg/injection, schedule: Q04DX003 (ip), vehicle: saline 87 % of control

COC(=O)C1(CC(=O)/C=C/c2ccccc2)NC(=S)NC(=O)C1C#N (centres undefined)
inactive: dose: 30.0 mg/kg/injection, schedule: Q01DX005 (ip), vehicle: Klucel (hydroxypropylcellulose) (HPC) 102 % of control | [13] 91 % of control and 92 % of control | [14] 92 % of control

N/N=C1/C(=O)N(c2cccc([N+](=O)[O-])c2)C(=O)C1C(=O)Nc1cccc([N+](=O)[O-])c1 (centres undefined)
inactive: dose: 37.5 mg/kg/injection, schedule: Q01DX005 (ip), vehicle: saline with Tween-80 101 % of control | dose: 75.0 mg/kg/injection, schedule: Q01DX005 (ip), vehicle: saline with Tween-80 100 % of control | dose: 150.0 mg/kg/injection, schedule: Q01DX005 (ip), vehicle: saline with Tween-80 105 % of control

CCOP(=O)(Nc1ccc2c(c1)Cc1c-2cc(Br)c(NC(C)=O)c1Br)OCC
inactive: [10] 94 % of control | [11] 94 % of control | [12] 96 % of control

O=C1C(c2[nH]c3cccc(Cl)c3c2O)=Nc2cccc(Cl)c21
inactive: [6] 100 % of control | [7] 104 % of control | dose: 200.0 mg/kg/injection, schedule: Q01DX005 (ip), vehicle: saline with Tween-80 109 % of control

CCOC(=O)c1c(C)[nH]c2c(-c3ccccc3)c3cc(Cl)ccc3nc12
inactive: [3] 103 % of control | [4] 109 % of control | [5] 104 % of control | dose: 400.0 mg/kg/injection, schedule: Q01DX009 (ip), vehicle: Klucel (hydroxypropylcellulose) (HPC) 99 % of control

Cn1c2ccccc2c(=O)c2c([N+](=O)[O-])ccc(NCCN)c21
inactive: [1] 109 % of control | [2] 114 % of control

Source: PubChem BioAssay AID330 (DTP/NCI, 2004)
